Test results as given in patent US7863449B2, “Modulators of muscarinic receptors” (Vertex Pharmaceuticals Incorporated, priority 2004, dated 2011).
One block for each compound: values may come before it.

Key:
[1] = target: T1, M4 muscarinic receptor (Homo sapiens, UniProt P08173); test: Functional mobilization of intracellular calcium (FLIPR), M4-CHO cells; format: cell-based; details: for Emax: 100% efficacy is the maximum response obtained using Carbachol as a control; for M4 Activity: M4-CHO cells, FLIPR calcium mobilization
T1 construct: expressed in transfected cells; host or cells: CHO (M4-CHO)
T1 sequence (P08173 1-479): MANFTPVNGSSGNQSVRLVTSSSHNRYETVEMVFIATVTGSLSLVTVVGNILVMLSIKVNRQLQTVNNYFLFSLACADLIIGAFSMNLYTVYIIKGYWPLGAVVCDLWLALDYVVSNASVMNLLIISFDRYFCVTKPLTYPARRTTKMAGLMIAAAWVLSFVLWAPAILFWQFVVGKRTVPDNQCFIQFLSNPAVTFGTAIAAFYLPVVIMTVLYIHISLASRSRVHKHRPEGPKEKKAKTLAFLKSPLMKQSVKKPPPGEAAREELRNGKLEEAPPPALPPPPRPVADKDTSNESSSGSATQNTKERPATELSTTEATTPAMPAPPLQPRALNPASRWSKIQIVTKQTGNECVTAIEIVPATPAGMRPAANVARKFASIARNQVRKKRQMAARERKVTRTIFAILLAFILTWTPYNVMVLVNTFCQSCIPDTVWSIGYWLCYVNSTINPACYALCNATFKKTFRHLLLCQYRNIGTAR
How it was run: (§1)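 CHO cells expressing M1 or M4, loaded with Fluo-3 AM or Calcium 3 dye with 1 mM probenecid, 0.5% DMSO final. Agonist mode: compound added directly; antagonist mode: 15 min pre-incubation (or co-application) before carbachol at EC80. Fluorescence recorded 60 s on FLIPR.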

[2] = target: T2, M1 muscarinic receptor (Homo sapiens, UniProt P11229); test: Functional mobilization of intracellular calcium (FLIPR), M1-CHO cells; format: cell-based; details: for Emax: 100% efficacy is the maximum response obtained using Carbachol as a control; for M1 Activity: M1-CHO cells, FLIPR calcium mobilization
T2 construct: expressed in transfected cells; host or cells: CHO (M1-CHO)
T2 sequence (P11229 1-460): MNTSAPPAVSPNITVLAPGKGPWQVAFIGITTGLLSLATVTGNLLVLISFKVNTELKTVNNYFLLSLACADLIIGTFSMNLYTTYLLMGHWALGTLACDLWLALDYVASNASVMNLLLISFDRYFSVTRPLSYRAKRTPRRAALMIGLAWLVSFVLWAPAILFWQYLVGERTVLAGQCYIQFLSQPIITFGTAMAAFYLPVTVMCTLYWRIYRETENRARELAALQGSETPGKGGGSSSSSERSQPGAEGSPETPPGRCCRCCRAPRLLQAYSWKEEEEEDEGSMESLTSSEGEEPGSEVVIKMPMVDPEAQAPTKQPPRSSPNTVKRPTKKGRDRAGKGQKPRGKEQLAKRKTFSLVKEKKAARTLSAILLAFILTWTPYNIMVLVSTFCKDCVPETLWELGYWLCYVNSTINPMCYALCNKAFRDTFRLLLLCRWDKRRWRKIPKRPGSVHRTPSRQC
How it was run: as §1

SMILES: CCCOC(=O)N1Cc2ccccc2C2(CCN(C3CC4CCC(C3)N4C(=O)OCC)CC2)C1 (stereo not shown) [compound 99]
Emax [1]: 25 to 100% | M4 Activity [1]: +++ (activity was measured to be less than 1.0 μM) | Emax [2]: 25 to 100% | M1 Activity [2]: +++ (activity was measured to be less than 1.0 μM)

SMILES: CC(=O)N1Cc2ccccc2C2(CCN(CC3CCN(C(=O)OC4CCC4)CC3)CC2)C1 [compound 291]
Emax [1]: < 25% | M4 Activity [1]: + (activity was measured to be greater than 5.0 μM) | Emax [2]: < 25% | M1 Activity [2]: + (activity was measured to be greater than 5.0 μM)

SMILES: CC(=O)N1Cc2ccccc2C2(CCN(C3CC4CCC(C3)N4C(=O)O[C@H]3CCOC3)CC2)C1 (stereo partly shown) [compound 354]
Emax [1]: 25 to 100% | M4 Activity [1]: +++ (activity was measured to be less than 1.0 μM) | Emax [2]: 25 to 100% | M1 Activity [2]: +++ (activity was measured to be less than 1.0 μM)

SMILES: CCOC(=O)N1C2CCC1CC(N1CCC3(CC1)CN(C(=O)Nc1c(C)noc1C)Cc1ccccc13)C2.Cl (stereo not shown) [compound 233, Ethyl 3-(2-(3,5-dimethylisoxazol-4-ylcarbamoyl)-2,3-dihydro-1H -spiro[isoquinoline-4,4′-piperidine]-1′-yl)-8-azabicyclo[3.2.1]octane-8-carboxylate hydrochloride]
Emax [1]: 25 to 100% | M4 Activity [1]: +++ (activity was measured to be less than 1.0 μM) | Emax [2]: 25 to 100% | M1 Activity [2]: +++ (activity was measured to be less than 1.0 μM)

SMILES: CCOC(=O)N1CCC(N2CCC3(CC2)CN(C(=O)NC2CCCC2)Cc2ccccc23)CC1 [compound 283]
Emax [1]: 25 to 100% | M4 Activity [1]: +++ (activity was measured to be less than 1.0 μM) | Emax [2]: 25 to 100% | M1 Activity [2]: +++ (activity was measured to be less than 1.0 μM)

SMILES: CCOC(=O)N1C2CCC1CC(N1CCC3(CC1)CN(C(=O)c1snnc1C(C)C)Cc1ccccc13)C2 (stereo not shown) [compound 220]
Emax [1]: 25 to 100% | M4 Activity [1]: +++ (activity was measured to be less than 1.0 μM) | Emax [2]: 25 to 100% | M1 Activity [2]: +++ (activity was measured to be less than 1.0 μM)

SMILES: CC(C)OC(=O)N1C2CCC1CC(N1CCC3(CC1)CN(S(C)(=O)=O)Cc1ccccc13)C2 (stereo not shown) [compound 154]
Emax [1]: 25 to 100% | M4 Activity [1]: +++ (activity was measured to be less than 1.0 μM) | Emax [2]: 25 to 100% | M1 Activity [2]: +++ (activity was measured to be less than 1.0 μM)

Emax [1]: < 25% | Emax [2]: 25 to 100%
SMILES: O=C1c2ccccc2C2(CCN(CC3CCCCC3)CC2)N1Cc1ccccc1 [compound 52]
M4 Activity [1]: + (activity was measured to be greater than 5.0 μM) | M1 Activity [2]: + (activity was measured to be greater than 5.0 μM)

SMILES: CC(=O)N1Cc2ccccc2C2(CCN(CC3CCC(C)=CC3C)CC2)C1 (stereo not shown) [compound 2]
Emax [1]: < 25% | Emax [2]: < 25%

SMILES: CCOC(=O)N1C2CCC1CC(N1CCC3(CC1)CN(C(C)=O)Cc1ccccc13)C2 (stereo not shown) [compound 197, ethyl 3-(2-acetyl-2,3-dihydro-1H-spiro[isoquinoline-4,4′-piperidine]-1′-yl)-8-azabicyclo[3.2.1]octane-8-carboxylate]
Emax [1]: 25 to 100% | M4 Activity [1]: +++ (activity was measured to be less than 1.0 μM) | Emax [2]: 25 to 100% | M1 Activity [2]: +++ (activity was measured to be less than 1.0 μM)

SMILES: CCOC(=O)N1CCC(N2CCC3(CC2)CN(CCC(C)C)Cc2ccccc23)CC1 [compound 313, ethyl 4-(2-isopentyl-2,3-dihydro-1H-spiro[isoquinoline-4,4′-piperidine]-1′-yl)piperidine-1-carboxylate]
Emax [1]: 25 to 100% | M4 Activity [1]: +++ (activity was measured to be less than 1.0 μM) | Emax [2]: > 100% | M1 Activity [2]: +++ (activity was measured to be less than 1.0 μM)

SMILES: CC(=O)N1Cc2ccccc2C2(CCN(C3(C)CCCCC3)CC2)C1 [compound 4, 1-(1′-(1-methylcyclohexyl)-1H-spiro[isoquinoline-4,4′-piperidine]-2(3H)-yl)ethanone]
Emax [1]: 25 to 100% | M4 Activity [1]: +++ (activity was measured to be less than 1.0 μM) | Emax [2]: 25 to 100% | M1 Activity [2]: ++ (activity was measured to be from 1.0 μM to 5.0 μM)

SMILES: CCOC(=O)N1CCC(CN2CCC3(CC2)CN(C(=O)OC)Cc2ccccc23)CC1 [compound 128]
Emax [1]: 25 to 100% | M4 Activity [1]: +++ (activity was measured to be less than 1.0 μM) | Emax [2]: 25 to 100% | M1 Activity [2]: +++ (activity was measured to be less than 1.0 μM)

SMILES: O=C(OC1CCC1)N1Cc2ccccc2C2(CCN(C3CC4CCC(C3)N4C(=O)O[C@H]3CCOC3)CC2)C1 (stereo partly shown) [compound 212]
M4 Activity [1]: +++ (activity was measured to be less than 1.0 μM) | M1 Activity [2]: +++ (activity was measured to be less than 1.0 μM)

SMILES: CC(=O)N1Cc2ccccc2C2(CCN(C3CC4CCC(C3)N4C(=O)OC3CCC3)CC2)C1 (stereo not shown) [compound 348]
Emax [1]: 25 to 100% | M4 Activity [1]: +++ (activity was measured to be less than 1.0 μM) | Emax [2]: 25 to 100% | M1 Activity [2]: +++ (activity was measured to be less than 1.0 μM)

SMILES: CCOC(=O)N1C2CCC1CC(N1CCC3(CC1)CN(C(=O)OC1CCC1)Cc1ccccc13)C2 (stereo not shown) [compound 27]
Emax [1]: 25 to 100% | M4 Activity [1]: +++ (activity was measured to be less than 1.0 μM) | Emax [2]: 25 to 100% | M1 Activity [2]: +++ (activity was measured to be less than 1.0 μM)

SMILES: CC(=O)N1Cc2ccccc2C2(CCN(C3CCC(=O)CC3)CC2)C1 [compound 153]
Emax [1]: 25 to 100% | M4 Activity [1]: ++ (activity was measured to be from 1.0 μM to 5.0 μM) | Emax [2]: 25 to 100% | M1 Activity [2]: + (activity was measured to be greater than 5.0 μM)

SMILES: CC(=O)N1Cc2ccccc2C2(CCN(CC3CCCCC3)CC2)C1 [compound 35]
Emax [1]: < 25% | M4 Activity [1]: ++ (activity was measured to be from 1.0 μM to 5.0 μM) | Emax [2]: < 25% | M1 Activity [2]: + (activity was measured to be greater than 5.0 μM)

SMILES: CCCCNC(=O)N1Cc2ccccc2C2(CCN(C3CC4CCC(C3)N4C(=O)OCC)CC2)C1 (stereo not shown) [compound 61]
Emax [1]: 25 to 100% | M4 Activity [1]: +++ (activity was measured to be less than 1.0 μM) | Emax [2]: 25 to 100% | M1 Activity [2]: +++ (activity was measured to be less than 1.0 μM)

SMILES: CC(=O)N1Cc2ccccc2C2(CCN(Cc3sc(C)nc3C)CC2)C1 [compound 301]
Emax [1]: < 25% | M4 Activity [1]: + (activity was measured to be greater than 5.0 μM) | Emax [2]: < 25% | M1 Activity [2]: + (activity was measured to be greater than 5.0 μM)

SMILES: CC(=O)N1Cc2ccccc2C2(CCN(Cc3cc(C)c(C)o3)CC2)C1 [compound 101]
Emax [1]: < 25% | M4 Activity [1]: + (activity was measured to be greater than 5.0 μM) | Emax [2]: < 25% | M1 Activity [2]: + (activity was measured to be greater than 5.0 μM)

Emax [1]: < 25% | Emax [2]: 25 to 100%
SMILES: CCOC(=O)N1CCC(N2CCC3(CC2)c2ccccc2C(=O)N3Cc2ccccc2)CC1 [compound 20, ethyl 4-(2-benzyl-3-oxospiro[isoindoline-1,4′-piperidine]-1′-yl)piperidine-1-carboxylate]
M4 Activity [1]: + (activity was measured to be greater than 5.0 μM) | M1 Activity [2]: ++ (activity was measured to be from 1.0 μM to 5.0 μM)

SMILES: CCOC(=O)N1C2CCC1CC(N1CCC3(CC1)CN(C(=O)OC(C)C)Cc1ccccc13)C2 (stereo not shown) [compound 8]
Emax [1]: 25 to 100% | M4 Activity [1]: +++ (activity was measured to be less than 1.0 μM) | Emax [2]: 25 to 100% | M1 Activity [2]: +++ (activity was measured to be less than 1.0 μM)
